Results: BindingDB's records for doi:10.1021/acs.jmedchem.7b01492 (Peking University, 2019)

Biological target: Neuronal acetylcholine receptor subunit alpha-7 (Homo sapiens, UniProt P36544)
Assay: Positive allosteric modulation of human alpha7 nAChR expressed in Xenopus laevis oocytes assessed as increase in acetylcholine-induced channel current by measuring acetylcholine EC50 at 10 uM at -90 mV holding potential preincubated for 2 mins followed by co-application with acetylcholine for 10 secs by two-electrode voltage clamp method (Rvb = 256.4 +/- 20.1 uM)

Neuronal acetylcholine receptor subunit alpha-7, sequence (P36544 whole entry): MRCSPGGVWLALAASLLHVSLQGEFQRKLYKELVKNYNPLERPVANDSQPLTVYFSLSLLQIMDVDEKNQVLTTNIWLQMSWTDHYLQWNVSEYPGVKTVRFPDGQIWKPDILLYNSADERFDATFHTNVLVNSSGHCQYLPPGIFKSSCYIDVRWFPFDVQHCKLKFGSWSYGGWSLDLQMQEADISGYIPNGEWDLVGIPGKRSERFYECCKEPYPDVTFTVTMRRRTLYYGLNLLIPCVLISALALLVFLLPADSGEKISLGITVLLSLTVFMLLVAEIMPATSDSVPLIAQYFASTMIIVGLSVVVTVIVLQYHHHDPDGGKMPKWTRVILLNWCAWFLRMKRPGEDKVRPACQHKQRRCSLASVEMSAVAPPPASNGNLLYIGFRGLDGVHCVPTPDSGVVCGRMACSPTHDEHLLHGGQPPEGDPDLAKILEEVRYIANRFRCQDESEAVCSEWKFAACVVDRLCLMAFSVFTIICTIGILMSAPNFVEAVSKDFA

## Cc1cccc(Cl)c1-n1cnc2nc(SCc3ccccc3)sc2c1=O
  EC50: 187 µM
